Data from patent US20100048900A1, “AGENT FOR TREATMENT OF VASCULAR LEAKS” (priority 2006, published 2010).

What was measured:
[1] = test system: human endothelial cells (HUVEC cells); experiment: In-vitro inhibition of the interleukin-2 (Proleukin) induced VLS: spherical deformation of HUVEC cells; format: cell-based; conditions: Proleukin in combination with 20 mM of substance, microscopic assessment after 4 to 6 days
Description: In-vitro examinations on the inhibition of the VLS induced by interleukin-2. Using human endothelial cells (HUVEC cells) the inhibition of the IL-2 induced VLS through ectoine and hydroxyectoine was investigated in an in-vitro system. In this context the concentrations of Proleukin® (by Chiron) were determined that lead to the spherical deformation of the HUVEC cells. The spherical deformation of HUVEC cells is considered as a sign for the triggering of the VLS, cf. Baluna et al., PNAS 3957-3962, March 1999. Same as VLS, this phenotype visible under the light microscope is based on the bonding of membrane proteins, the integrins. The cells were incubated with Proleukin solely or in combination with ectoine and hydroxyectoine. To verify the specificity of the compatible solutes also trehalose and glucose were employed additionally. After 4 to 6 days the proportion of normal and spherically deformed cells of a visual field are determined by microscopic assessment.

[2] = test system: NK cells and T cells of healthy-blood donors; experiment: Proleukin-induced interferon-γ synthesis of human lymphocytes (ELISA of supernatant); format: cell-based; conditions: 250 U Proleukin in combination with 20 mM hydroxyectoine, 48 hours, FIG. 2
From the text: Effects of hydroxyectoine on the Proleukin-induced interferon-γ-synthesis of human lymphocytes.
interleukin-2, IL-2, same as Proleukin leads to the activation of immune effector cells which can be determined, inter alia, by an increased interferon-γ secretion of NK cells and T-lymphocytes.
For this purpose NK cells and T cells of healthy-blood donors were isolated by means of the MACS technique (Magnetic Cell Sorting, Milteniy). The of detection of the cells expressing the surface markers CE 56, NKG2D and CD 3 was brought about by FACS analyses.
The cells without further additives have been incubated for 48 hours with 250 U Proleukin or with 250 U Proleukin in combination with 20 mM hydroxyectoine. Following this, the concentration of interferon-γ was determined in the supernatant of the cells with the aid of ELISA (triple determinations from two independent experiments).

Which “reduction of the Proleukin-induced VLS phenotype (spherically deformed HUVEC cells; VLS inhibition percentage, FIG. 1)” value [1] does the source give for `CC1=N[C@H](C(=O)O)[C@@H](O)CN1` [hydroxyectoine, (4S,5S)-5-hydroxy-2-methyl-1,4,5,6-tetrahydropyrimidine-4-carboxylic acid] here?
Its value is “significantly reduce the VLS phenotype”.

And the “inhibition of the induction of interferon-γ synthesis (concentration of interferon-γ in the supernatant)” value [2]?
The value was “does not inhibit the induction of the interferon-γ synthesis, on the contrary slightly increased values were found”.

How did the “reduction of the Proleukin-induced VLS phenotype (spherically deformed HUVEC cells; VLS inhibition percentage, FIG. 1)” value [1] turn out when `CC1=N[C@H](C(=O)O)CCN1` [ectoine, (4S)-2-methyl-1,4,5,6-tetrahydropyrimidine-4-carboxylic acid] was run?
The value was “significantly reduce the VLS phenotype”.
